This note sets out measurements from patent US11407767B2, “Heterocyclyl substituted pyrrolopyridines that are inhibitors of the CDK12 kinase” (The University of Nottingham, priority 2017, dated 2022).

CDK12/CycK, sequence (Q9NYV4 whole entry): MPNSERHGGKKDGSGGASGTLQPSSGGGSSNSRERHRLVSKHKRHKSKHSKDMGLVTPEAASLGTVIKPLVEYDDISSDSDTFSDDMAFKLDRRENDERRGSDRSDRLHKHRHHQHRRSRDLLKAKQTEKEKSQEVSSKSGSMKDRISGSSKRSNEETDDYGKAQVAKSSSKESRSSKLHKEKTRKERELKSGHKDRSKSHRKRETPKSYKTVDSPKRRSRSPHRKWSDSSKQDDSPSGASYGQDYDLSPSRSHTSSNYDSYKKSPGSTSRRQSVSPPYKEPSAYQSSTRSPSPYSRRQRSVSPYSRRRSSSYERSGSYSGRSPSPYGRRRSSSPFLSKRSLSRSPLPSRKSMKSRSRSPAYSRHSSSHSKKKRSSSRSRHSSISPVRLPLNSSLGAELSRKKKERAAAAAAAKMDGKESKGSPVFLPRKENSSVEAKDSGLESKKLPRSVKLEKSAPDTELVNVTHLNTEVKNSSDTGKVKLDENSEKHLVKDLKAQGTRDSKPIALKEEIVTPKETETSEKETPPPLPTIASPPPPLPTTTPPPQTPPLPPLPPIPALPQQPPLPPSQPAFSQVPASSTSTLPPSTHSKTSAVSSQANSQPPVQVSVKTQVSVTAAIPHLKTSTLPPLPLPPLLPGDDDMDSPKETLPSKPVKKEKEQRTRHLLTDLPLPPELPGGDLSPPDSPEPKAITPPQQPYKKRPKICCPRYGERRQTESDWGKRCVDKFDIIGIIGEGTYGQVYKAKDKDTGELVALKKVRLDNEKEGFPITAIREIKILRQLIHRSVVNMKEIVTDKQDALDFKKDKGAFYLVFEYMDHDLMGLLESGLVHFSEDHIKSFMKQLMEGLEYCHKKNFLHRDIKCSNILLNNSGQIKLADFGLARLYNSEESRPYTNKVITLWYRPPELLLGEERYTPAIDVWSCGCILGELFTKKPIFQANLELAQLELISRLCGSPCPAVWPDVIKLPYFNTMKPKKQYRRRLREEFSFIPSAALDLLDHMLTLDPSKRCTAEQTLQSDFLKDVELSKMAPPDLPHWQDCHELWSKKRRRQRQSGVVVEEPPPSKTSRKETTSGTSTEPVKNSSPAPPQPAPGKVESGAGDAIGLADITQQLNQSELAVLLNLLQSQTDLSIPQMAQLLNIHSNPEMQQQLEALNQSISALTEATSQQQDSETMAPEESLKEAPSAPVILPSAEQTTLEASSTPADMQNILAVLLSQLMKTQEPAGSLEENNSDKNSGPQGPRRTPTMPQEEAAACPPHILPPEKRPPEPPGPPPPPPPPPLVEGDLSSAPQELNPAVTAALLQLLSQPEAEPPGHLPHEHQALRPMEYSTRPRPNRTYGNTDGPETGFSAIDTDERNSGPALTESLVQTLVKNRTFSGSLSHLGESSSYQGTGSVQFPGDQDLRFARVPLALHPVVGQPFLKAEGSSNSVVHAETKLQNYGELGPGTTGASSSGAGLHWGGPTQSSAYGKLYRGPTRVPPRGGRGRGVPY
CDK12/CycK, sequence (O75909 whole entry partner): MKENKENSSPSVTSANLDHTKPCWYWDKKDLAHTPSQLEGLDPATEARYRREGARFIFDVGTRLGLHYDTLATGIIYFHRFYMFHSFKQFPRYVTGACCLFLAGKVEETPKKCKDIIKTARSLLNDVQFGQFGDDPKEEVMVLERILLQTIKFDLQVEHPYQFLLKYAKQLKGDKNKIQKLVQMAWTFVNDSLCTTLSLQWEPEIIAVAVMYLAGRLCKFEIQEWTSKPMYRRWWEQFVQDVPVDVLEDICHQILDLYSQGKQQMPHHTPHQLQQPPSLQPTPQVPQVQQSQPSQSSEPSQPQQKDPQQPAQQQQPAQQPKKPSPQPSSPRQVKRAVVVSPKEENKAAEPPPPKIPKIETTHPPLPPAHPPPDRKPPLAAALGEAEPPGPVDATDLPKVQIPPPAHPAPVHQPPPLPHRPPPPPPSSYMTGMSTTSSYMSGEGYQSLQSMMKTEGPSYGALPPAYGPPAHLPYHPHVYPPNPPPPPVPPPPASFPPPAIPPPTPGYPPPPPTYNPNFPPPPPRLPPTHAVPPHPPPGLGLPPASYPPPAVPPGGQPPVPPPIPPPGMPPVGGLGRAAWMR

This assay has as its target CDK12/CycK (Homo sapiens, UniProt Q9NYV4). In words: Inhibition of CDK12 (ADP-Glo kinase assay). In kind it is biochemical. The conditions noted are these: 60 nM CDK12/CycK, 30 minutes pre-incubation, 1 μM ATP, 0.5 μM RBER-IRStide substrate, 1 h at 25° C., read-out: CDK12/cyclin K IC50. The method, then: Assay buffer comprised 50 mM HEPES pH 7.5, 1 mM DTT, 20 mM MgCl2, 3 mM MnCl2, 3 μM Na3VO4 and 50 μg/ml PEG8000. Kinase reactions were carried out in 384-well Optiplates™ (PerkinElmer 6007299). Test compounds were dissolved & diluted in dimethyl sulfoxide (DMSO) and cross diluted into assay buffer with a final DMSO concentration of 1% (v/v) in the assay. Test compounds (or 1% DMSO in control and blank wells) were pre-incubated with 60 nM CDK12/CycK for 30 minutes. After this time 1 μM Adenosine-5′-triphosphate (ATP) and 0.5 μM RBER-IRStide substrate (ProQinase 0863-0000-1) were added to commence the kinase reaction. Incubations were carried out for 1 h at 25° C. with kinase activity determined using the ADP-Glo™ reagent from Promega according to the manufacturer's instructions. Light generated is proportional to kinase activity and measured using a luminometer (EnVision, PerkinElmer). The signal obtained in the blank wells (containing no kinase) was subtracted from all other wells and IC50 values were determined by fitting a sigmoidal curve to % inhibition of control versus Log10 compound concentration.
(In general: In ADP-Glo the light output rises with the ADP produced.)
With `C=CC(=O)N1CCC1C(=O)NCCc1cc2c(-c3cnn4ncccc34)ccnc2[nH]1` (single isomer, unassigned) [Example 40], the IC50 was < 0.1 µM.

For `C=CC(=O)N1CCO[C@@H](C(=O)NCCc2cc3c(-c4cnn5ncccc45)ccnc3[nH]2)C1` (single isomer, unassigned) [Example 61], the IC50 was < 0.1 µM.

Take `CC(=O)N1CCO[C@H](C(=O)NCCc2cc3c(-c4cnn5ncccc45)ccnc3[nH]2)C1` (single isomer, unassigned) [Example 62]: the IC50 was < 0.1 µM. As to `c1cnn2ncc(-c3ccnc4[nH]c([C@@H]5CCNC5)cc34)c2c1` (single isomer, unassigned) [Example 124, 3-(2-(Pyrrolidin-3-yl)-1H-pyrrolo[2,3-b]pyridin-4-yl)pyrazolo[1,5-b]pyridazine], the IC50 fell in the range of 0.1 to 1 µM. On to `c1cnn2ncc(-c3ccnc4[nH]c([C@H]5CCNC5)cc34)c2c1` (single isomer, unassigned) [Example 125, 3-(2-(Pyrrolidin-3-yl)-1H-pyrrolo[2,3-b]pyridin-4-yl)pyrazolo[1,5-b]pyridazine], for which the IC50 is 0.1 to 1 µM. For the compound `C=CC(=O)Nc1ccc(C(=O)N2CC[C@@H](c3cc4c(-c5cnn6ncccc56)ccnc4[nH]3)C2)cc1` (single isomer, unassigned) [Example 148, N-(4-(3-(4-(Pyrazolo[1,5-b]pyridazin-3-yl)-1H-pyrrolo[2,3-b]pyridin-2-yl)pyrrolidine-1-carbonyl)phenyl)acrylamide], the IC50 was < 0.1 µM. With `C=CC(=O)Nc1cccc(C(=O)N2CC[C@@H](c3cc4c(-c5cnn6ncccc56)ccnc4[nH]3)C2)c1` (single isomer, unassigned) [Example 149, N-(3-(3-(4-(Pyrazolo[1,5-b]pyridazin-3-yl)-1H-pyrrolo[2,3-b]pyridin-2-yl)pyrrolidine-1-carbonyl)phenyl)acrylamide], the IC50 was < 0.1 µM.

Take `Cc1cc(-c2cnn3ncccc23)c2cc[nH]c2n1` [Example 1, 3-(6-Methyl-1H-pyrrolo[2,3-b]pyridin-4-yl)pyrazolo[1,5-b]pyridazine]: the IC50 was 1 to 30 µM. Take `CN(C)C(=O)c1cc2c(-c3cnn4ncccc34)ccnc2[nH]1` [Example 2, N,N-Dimethyl-4-(pyrazolo[1,5-b]pyridazin-3-yl)-1H-pyrrolo[2,3-b]pyridine-2-carboxamide]: the IC50 was in the range of 1 to 30 µM. As for `COCCNC(=O)c1cc2c(-c3cnn4ncccc34)ccnc2[nH]1` [Example 3, N-(2-Methoxyethyl)-4-(pyrazolo[1,5-b]pyridazin-3-yl)-1H-pyrrolo[2,3-b]pyridine-2-carboxamide], the IC50 was in the range of 1 to 30 µM. Consider `CC(C)CNC(=O)c1cc2c(-c3cnn4ncccc34)ccnc2[nH]1` [Example 4, N-Isobutyl-4-(pyrazolo[1,5-b]pyridazin-3-yl)-1H-pyrrolo[2,3-b]pyridine-2-carboxamide], for which the IC50 was in the range of 1 to 30 µM. As to `CN(C)CCNC(=O)c1cc2c(-c3cnn4ncccc34)ccnc2[nH]1` [Example 5, N-(2-(Dimethylamino)ethyl)-4-(pyrazolo[1,5-b]pyridazin-3-yl)-1H-pyrrolo[2,3-b]pyridine-2-carboxamide], the IC50 fell in the range of 1 to 30 µM.

On to `Cc1c[nH]c2nccc(-c3cnn4ncccc34)c12` [Example 8, 3-(3-Methyl-1H-pyrrolo[2,3-b]pyridin-4-yl)pyrazolo[1,5-b]pyridazine], for which the IC50 was 1 to 30 µM. On to `Cc1cnc2[nH]ccc2c1-c1cnn2ncccc12` [Example 9, 3-(5-Methyl-1H-pyrrolo[2,3-b]pyridin-4-yl)pyrazolo[1,5-b]pyridazine], for which the IC50 is 1 to 30 µM. Take `c1cnn2ncc(-c3ccnc4[nH]c(CN5CCOCC5)cc34)c2c1` [Example 12, 4-((4-(Pyrazolo[1,5-b]pyridazin-3-yl)-1H-pyrrolo[2,3-b]pyridin-2-yl)methyl)morpholine]: the IC50 is 1 to 30 µM.

As for `O=C(CN1CCOCC1)NCc1cc2c(-c3cnn4ncccc34)ccnc2[nH]1` [Example 13, 2-Morpholino-N-((4-(pyrazolo[1,5-b]pyridazin-3-yl)-1H-pyrrolo[2,3-b]pyridin-2-yl)methyl)acetamide], the IC50 lay within 1 to 30 µM.

Regarding `CN1CCN(CC(=O)NCc2cc3c(-c4cnn5ncccc45)ccnc3[nH]2)CC1` [Example 14, 2-(4-Methylpiperazin-1-yl)-N-((4-(pyrazolo[1,5-b]pyridazin-3-yl)-1H-pyrrolo[2,3-b]pyridin-2-yl)methyl)acetamide], the IC50 lay within 1 to 30 µM.

On to `CC(C)(C)OC(=O)N1CCN(Cc2cc3c(-c4cnn5ncccc45)ccnc3[nH]2)CC1` [Example 15, tert-Butyl 4-((4-(pyrazolo[1,5-b]pyridazin-3-yl)-1H-pyrrolo[2,3-b]pyridin-2-yl)methyl)piperazine-1-carboxylate], for which the IC50 fell in the range of 1 to 30 µM. Take `CN1CCN(Cc2cc3c(-c4cnn5ncccc45)ccnc3[nH]2)CC1` [Example 16, 3-(2-((4-Methylpiperazin-1-yl)methyl)-1H-pyrrolo[2,3-b]pyridin-4-yl)pyrazolo[1,5-b]pyridazine]: the IC50 lay in the range of 0.1 to 1 µM.

Consider `CN(C)CCNCc1cc2c(-c3cnn4ncccc34)ccnc2[nH]1` [Example 17, N1,N1-Dimethyl-N2-((4-(pyrazolo[1,5-b]pyridazin-3-yl)-1H-pyrrolo[2,3-b]pyridin-2-yl)methyl)ethane-1,2-diamine], for which the IC50 lay within 1 to 30 µM.

On to `c1ccn2ncc(-c3ccnc4[nH]ccc34)c2c1` [Example 18, 4-(Pyrazolo[1,5-a]pyridin-3-yl)-1H-pyrrolo[2,3-b]pyridine], for which the IC50 was in the range of 1 to 30 µM. Under `CCn1nccc1-c1ccnc2[nH]ccc12` [Example 19, 4-(1-Ethyl-1H-pyrazol-5-yl)-1H-pyrrolo[2,3-b]pyridine] stands 1 to 30 µM; under `COc1cnn2ncc(-c3ccnc4[nH]ccc34)c2c1` [Example 23, 5-Methoxy-3-(1H-pyrrolo[2,3-b]pyridin-4-yl)pyrazolo[1,5-b]pyridazine], 1 to 30 µM; under `COCCOc1cnn2ncc(-c3ccnc4[nH]ccc34)c2c1` [Example 24, 5-(2-Methoxyethoxy)-3-(1H-pyrrolo[2,3-b]pyridin-4-yl)pyrazolo[1,5-b]pyridazine], 1 to 30 µM. Turning to `CC1(C)OCC(COc2cnn3ncc(-c4ccnc5[nH]ccc45)c3c2)O1` (centres unmarked) [Example 25, 5-((2,2-Dimethyl-1,3-dioxolan-4-yl)methoxy)-3-(1H-pyrrolo[2,3-b]pyridin-4-yl)pyrazolo[1,5-b]pyridazine], the IC50 is 1 to 30 µM. On to `Cc1ccc2c(-c3ccnc4[nH]ccc34)cnn2n1` [Example 26, 6-Methyl-3-(1H-pyrrolo[2,3-b]pyridin-4-yl)pyrazolo[1,5-b]pyridazine], for which the IC50 fell in the range of 1 to 30 µM.

For the compound `c1cnc2ncc(-c3ccnc4[nH]ccc34)n2c1` [Example 29, 3-(1H-Pyrrolo[2,3-b]pyridin-4-yl)imidazo[1,2-a]pyrimidine], the IC50 is 1 to 30 µM. Regarding `NCCc1cc2c(-c3cnn4ncccc34)ccnc2[nH]1` [Example 30, 2-(4-(Pyrazolo[1,5-b]pyridazin-3-yl)-1H-pyrrolo[2,3-b]pyridin-2-yl)ethan-1-amine], the IC50 lay within 0.1 to 1 µM. On to `CCNCCc1cc2c(-c3cnn4ncccc34)ccnc2[nH]1` [Example 31, N-ethyl-2-(4-(pyrazolo[1,5-b]pyridazin-3-yl)-1H-pyrrolo[2,3-b]pyridin-2-yl)ethan-1-amine], for which the IC50 was 0.1 to 1 µM. As to `O=C(NCCc1cc2c(-c3cnn4ncccc34)ccnc2[nH]1)[C@@H]1CCCN1C(=O)CCl` [Example 41, (S)-1-(2-Chloroacetyl)-N-(2-(4-(pyrazolo[1,5-b]pyridazin-3-yl)-1H-pyrrolo[2,3-b]pyridin-2-yl)ethyl)pyrrolidine-2-carboxamide], the IC50 lay in the range of 0.1 to 1 µM. In the case of `C=CC(=O)N1CCC[C@H]1C(=O)N(C)CCc1cc2c(-c3cnn4ncccc34)ccnc2[nH]1` [Example 46, (S)-1-Acryloyl-N-methyl-N-(2-(4-(pyrazolo[1,5-b]pyridazin-3-yl)-1H-pyrrolo[2,3-b]pyridin-2-yl)ethyl)pyrrolidine-2-carboxamide] it was 0.1 to 1 µM. Take `C=CC(=O)N1CCC[C@@H]1C(=O)N(C)CCc1cc2c(-c3cnn4ncccc34)ccnc2[nH]1` [Example 47, (R)-1-Acryloyl-N-methyl-N-(2-(4-(pyrazolo[1,5-b]pyridazin-3-yl)-1H-pyrrolo[2,3-b]pyridin-2-yl)ethyl)pyrrolidine-2-carboxamide]: the IC50 was 1 to 30 µM. In the case of `C=CC(=O)N1CCC[C@H](C(=O)N(C)CCc2cc3c(-c4cnn5ncccc45)ccnc3[nH]2)C1` [Example 48, (S)-1-Acryloyl-N-methyl-N-(2-(4-(pyrazolo[1,5-b]pyridazin-3-yl)-1H-pyrrolo[2,3-b]pyridin-2-yl)ethyl)piperidine-3-carboxamide] it was 0.1 to 1 µM. Take `C=CC(=O)Nc1cccc(C(=O)N(C)CCc2cc3c(-c4cnn5ncccc45)ccnc3[nH]2)c1` [Example 49, 3-Acrylamido-N-methyl-N-(2-(4-(pyrazolo[1,5-b]pyridazin-3-yl)-1H-pyrrolo[2,3-b]pyridin-2-yl)ethyl)benzamide]: the IC50 lay in the range of 0.1 to 1 µM.

As for `C=CC(=O)N1CCC[C@H]1C(=O)N(CC)CCc1cc2c(-c3cnn4ncccc34)ccnc2[nH]1` [Example 50, (S)-1-Acryloyl-N-ethyl-N-(2-(4-(pyrazolo[1,5-b]pyridazin-3-yl)-1H-pyrrolo[2,3-b]pyridin-2-yl)ethyl)pyrrolidine-2-carboxamide], the IC50 was 1 to 30 µM.
